According to ChEMBL document CHEMBL1151668, “Molecular structure of terrecyclodiol: a derivative of the antifungal metabolite terrecyclic acid A from Aspergillus terreus” (1996):
Active and inactive are the calls of the source. The calls are words filed in the database; no cut-off is given here.

What was measured:
P388 = test: Antitumor activity against mouse P388 cells; assay type: functional
Phytophthora cinnamomi = test: Growth inhibition of Phytophthora cinnamomi; assay type: functional, organism-based

**Q.** For `C=C1C(=O)C[C@@H]2[C@@H]3CC[C@@H](C(=O)O)[C@@]12CC3(C)C` [TERRECYCLIC ACID A], which Activity (P388) is on record?
**A.** <0.5 µg/mL

**Q.** And the Activity (Phytophthora cinnamomi)?
**A.** Active
